In patent publication US20250340551A1, “SMALL MOLECULE MODULATORS OF STAT6” (Gilead Sciences, Inc., priority 2024, published 2025):

System: Eotaxin-3 (CCL26) release in human whole blood stimulated with IL-4
Assay: Human whole blood eotaxin-3 assay (IL-4 stimulated, Eotaxin-3 release)
Assay type: cell-based
Settings: Homo sapiens; for EC50: Hec50, 48 h; for Emax: 48 h
How it was run: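 Lithium-heparin blood preincubated 2 h at 37° C with 4-fold compound dilutions (0.5% DMSO, triplicates), then stimulated with 400 pM recombinant human IL-4 for 48 h. Eotaxin-3 in plasma supernatant measured by MSD immunoassay.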

SMILES | EC50 [nM] | Emax [%]
[2H]C([2H])([2H])N(C(=O)c1ccc(C2CCN([C@@H](C)c3cc4c(-c5ccc(N)nc5OC)ccnc4n3C)CC2)cc1)C([2H])([2H])[2H] [Example 1af67, (S)-4-(1-(1-(4-(6-amino-2-methoxypyridin-3-yl)-1-methyl-1H-pyrrolo[2,3-b]pyridin-2-yl)ethyl)piperidin-4-yl)-N,N-bis(methyl-d3)benzamide] | 97 | –
CN(C)C(=O)c1ccc(C2=CCN(Cc3cc4c(-c5ccc(N)nc5)ccnc4n3C)CC2)cc1F [Example 1z7, 4-(1-((4-(6-aminopyridin-3-yl)-1-methyl-1H-pyrrolo[2,3-b]pyridin-2-yl)methyl)-1,2,3,6-tetrahydropyridin-4-yl)-2-fluoro-N,N-dimethylbenzamide] | – | 20 to 30
CNc1ccc(-c2ccnc3c2cc(CN2CC=C(c4c(F)cc(C(=O)N(C)C)cc4Cl)CC2)n3C)nn1 [Example 1p20, 3-Chloro-5-fluoro-N,N-dimethyl-4-[1-[[1-methyl-4-[6-(methylamino)pyridazin-3-yl]pyrrolo[2,3-b]pyridin-2-yl]methyl]-3,6-dihydro-2H-pyridin-4-yl]benzamide] | 214 | –
[2H]C([2H])([2H])N(C(=O)c1ccc(C2CCN([C@@H](C)c3cc4c(-c5ccc(NCCO)nc5)ccnc4n3C)CC2)cc1)C([2H])([2H])[2H] [Example 1af69, (S)-4-(1-(1-(4-(6-((2-hydroxyethyl)amino)pyridin-3-yl)-1-methyl-1H-pyrrolo[2,3-b]pyridin-2-yl)ethyl)piperidin-4-yl)-N,N-bis(methyl-d3)benzamide] | 262 | –
Cc1cc(C(=O)N(C)C)cnc1C1=CCN(Cc2cc3c(-c4ccc(N)nn4)ccnc3n2C)CC1 [Example 1ae22, 1′-((4-(6-Aminopyridazin-3-yl)-1-methyl-1H-pyrrolo[2,3-b]pyridin-2-yl)methyl)-N,N,3-trimethyl-1′,2′,3′,6′-tetrahydro-[2,4′-bipyridine]-5-carboxamide] | 392 | –
[2H]C([2H])([2H])N(C(=O)c1ccc(C2=CCN([C@@H](C)c3cc4c(-c5cnc(N)cc5F)ccnc4n3C)CC2)cc1)C([2H])([2H])[2H] [Example 1af55, (S)-4-(1-(1-(4-(6-Amino-4-fluoropyridin-3-yl)-1-methyl-1H-pyrrolo[2,3-b]pyridin-2-yl)ethyl)-1,2,3,6-tetrahydropyridin-4-yl)-N,N-bis(methyl-d3)benzamide] | 426 | –
Cc1cc(C2=CCN(Cc3cc4c(-c5ccc(N)nc5)ccnc4n3C)CC2)ccc1C(=O)N(C)C [Example 1z5, 4-(1-((4-(6-aminopyridin-3-yl)-1-methyl-1H-pyrrolo[2,3-b]pyridin-2-yl)methyl)-1,2,3,6-tetrahydropyridin-4-yl)-N,N,2-trimethylbenzamide] | – | 30 to 40
Cc1cc(C(=O)N(C)C)nnc1C1=CCN(Cc2cc3c(-c4ccc(N)nc4)ccnc3n2C)CC1 [Example 1z6, 6-(1-((4-(6-aminopyridin-3-yl)-1-methyl-1H-pyrrolo[2,3-b]pyridin-2-yl)methyl)-1,2,3,6-tetrahydropyridin-4-yl)-N,N,5-trimethylpyridazine-3-carboxamide] | – | < 20
CNc1ccc(-c2ccnc3c2cc([C@@H](C)N2CC=C(c4c(C)cc(C(=O)N(C)C)cc4F)CC2)n3C)nc1 [Example 1z41, (R)-3-fluoro-N,N,5-trimethyl-4-(1-(1-(1-methyl-4-(5-(methyl-amino)pyridin-2-yl)-1H-pyrrolo[2,3-b]pyridin-2-yl)ethyl)-1,2,3,6-tetrahydropyridin-4-yl)benzamide] | 110 | –
CNc1ccc(-c2ccnc3c2cc(CN2CC=C(c4c(C)cc(C(=O)N(C)C)cc4F)CC2)n3C)nn1 [Example 1p17, 3-Fluoro-N,N,5-trimethyl-4-[1-[[1-methyl-4-[6-(methylamino)pyridazin-3-yl]pyrrolo[2,3-b]pyridin-2-yl]methyl]-3,6-dihydro-2H-pyridin-4-yl]benzamide] | 94 | –
[2H]C([2H])([2H])N(C(=O)c1ccc(C2=CCN([C@@H](C)c3cc4c(-c5ncc(N)cc5C)ccnc4n3C)CC2)cc1)C([2H])([2H])[2H] [Example 1af53, (S)-4-(1-(1-(4-(5-Amino-3-methylpyridin-2-yl)-1-methyl-1H-pyrrolo[2,3-b]pyridin-2-yl)ethyl)-1,2,3,6-tetrahydropyridin-4-yl)-N,N-bis(methyl-d3)benzamide] | 765 | –

Continued by falling EC50, values first:

EC50 [nM] | SMILES | Emax [%]
17900 | [2H]C([2H])([2H])N(C(=O)c1ccc(C2=CCN([C@@H](C)c3cc4c(-c5ncc(N)cc5C(F)(F)F)ccnc4n3C)CC2)cc1)C([2H])([2H])[2H] [Example 1af57, (S)-4-(1-(1-(4-(5-Amino-3-(trifluoromethyl)pyridin-2-yl)-1-methyl-1H-pyrrolo[2,3-b]pyridin-2-yl)ethyl)-1,2,3,6-tetrahydropyridin-4-yl)-N,N-bis(methyl-d3)benzamide] | –
4530 | CNc1ccc(-c2ccnc3c2cc(CN2CC=C(c4ncc(C(=O)N(C)C)cc4C)CC2)n3C)nn1 [Example 1p11, N,N,5-Trimethyl-6-[1-[[1-methyl-4-[6-(methylamino)pyridazin-3-yl]pyrrolo[2,3-b]pyridin-2-yl]methyl]-3,6-dihydro-2H-pyridin-4-yl]pyridine-3-carboxamide] | –
3200 | CNc1ccc(-c2ccnc3c2cc(CN2CC=C(c4ccc(C(=O)N(C)C)cc4OC)CC2)n3C)nn1 [Example 1p14, 3-Methoxy-N,N-dimethyl-4-[1-[[1-methyl-4-[6-(methylamino)pyridazin-3-yl]pyrrolo[2,3-b]pyridin-2-yl]methyl]-3,6-dihydro-2H-pyridin-4-yl]benzamide] | –
3190 | [2H]C([2H])([2H])N(C(=O)c1ccc(C2CCN([C@@H](C)c3cc4c(-c5cnc(N)nn5)ccnc4n3C)CC2)cc1)C([2H])([2H])[2H] [Example 1af64, (S)-4-(1-(1-(4-(3-amino-1,2,4-triazin-6-yl)-1-methyl-1H-pyrrolo[2,3-b]pyridin-2-yl)ethyl)piperidin-4-yl)-N,N-bis(methyl-d3)benzamide] | –
1530 | CNc1ccc(-c2ccnc3c2cc(CN2CC=C(c4ccc(C(=O)N(C)C)cc4C(F)(F)F)CC2)n3C)nn1 [Example 1p15, N,N-Dimethyl-4-[1-[[1-methyl-4-[6-(methylamino)pyridazin-3-yl]pyrrolo[2,3-b]pyridin-2-yl]methyl]-3,6-dihydro-2H-pyridin-4-yl]-3-(trifluoromethyl)benzamide] | –
1060 | Cc1cc(C(=O)N(C)C)cc(F)c1C1=CCN([C@@H](C)c2cc3c(-c4ccc(N)nc4)ccnc3n2C)CC1 [Example 1z29, (S)-4-(1-(1-(4-(6-aminopyridin-3-yl)-1-methyl-1H-pyrrolo[2,3-b]pyridin-2-yl)ethyl)-1,2,3,6-tetrahydropyridin-4-yl)-3-fluoro-N,N,5-trimethylbenzamide] | –
853 | CN(C)C(=O)c1ccc(C2=CCN(Cc3cc4c(-c5ccc(N)nc5)ccnc4n3C)CC2)c(C2CC2)c1 [Example 1z23, 4-(1-((4-(6-aminopyridin-3-yl)-1-methyl-1H-pyrrolo[2,3-b]pyridin-2-yl)methyl)-1,2,3,6-tetrahydropyridin-4-yl)-3-cyclopropyl-N,N-dimethylbenzamide] | –
611 | [2H]C([2H])([2H])N(C(=O)c1ccc(C2CCN([C@@H](C)c3cc4c(-c5ccc(N)c(C)n5)ccnc4n3C)CC2)cc1)C([2H])([2H])[2H] [Example 1af66, (S)-4-(1-(1-(4-(5-amino-6-methylpyridin-2-yl)-1-methyl-1H-pyrrolo[2,3-b]pyridin-2-yl)ethyl)piperidin-4-yl)-N,N-bis(methyl-d3)benzamide] | –
431 | Cc1cc(C(=O)N(C)C)cc(F)c1C1=CCN([C@H](C)c2cc3c(-c4ccc(N)cn4)ccnc3n2C)CC1 [Example 1z33, (R)-4-(1-(1-(4-(5-aminopyridin-2-yl)-1-methyl-1H-pyrrolo[2,3-b]pyridin-2-yl)ethyl)-1,2,3,6-tetrahydropyridin-4-yl)-3-fluoro-N,N,5-trimethylbenzamide] | –
239 | CNc1ccc(-c2ccnc3c2cc(CN2CC=C(c4c(C)cc(C(=O)N(C)C)cc4C)CC2)n3C)nn1 [Example 1p10, N,N,3,5-Tetramethyl-4-[1-[[1-methyl-4-[6-(methylamino)pyridazin-3-yl]pyrrolo[2,3-b]pyridin-2-yl]methyl]-3,6-dihydro-2H-pyridin-4-yl]benzamide] | –
204 | CN(C)C(=O)c1cc(F)c(C2=CCN(Cc3cc4c(-c5ccc(N)nn5)ccnc4n3C)CC2)c(F)c1 [Example 1z18, 4-(1-((4-(6-aminopyridazin-3-yl)-1-methyl-1H-pyrrolo[2,3-b]pyridin-2-yl)methyl)-1,2,3,6-tetrahydropyridin-4-yl)-3,5-difluoro-N,N-dimethylbenzamide] | –
159 | CN(C)C(=O)c1cc(F)c(C2=CCN(Cc3cc4c(-c5ccc(N)nn5)ccnc4n3C)CC2)c(Cl)c1 [Example 1af75, 4-(1-((4-(6-Aminopyridazin-3-yl)-1-methyl-1H-pyrrolo[2,3-b]pyridin-2-yl)methyl)-1,2,3,6-tetrahydropyridin-4-yl)-3-chloro-5-fluoro-N,N-dimethylbenzamide] | –
132 | [2H]C([2H])([2H])N(C(=O)c1cc(C)c(C2=CCN(Cc3cc4c(-c5ccc(NC)nn5)ccnc4n3C)CC2)c(F)c1)C([2H])([2H])[2H] [Example 1z34, 3-fluoro-5-methyl-N,N-bis(methyl-d3)-4-(1-((1-methyl-4-(6-(methylamino)pyridazin-3-yl)-1H-pyrrolo[2,3-b]pyridin-2-yl)methyl)-1,2,3,6-tetrahydropyridin-4-yl)benzamide] | –
46.3 | [2H]C([2H])([2H])N(C(=O)c1cnc(C2=CCN(Cc3cc4c(-c5ccc(N)nc5)ccnc4n3C)CC2)nc1)C([2H])([2H])[2H] [Example 1af73, 2-(1-((4-(6-Aminopyridin-3-yl)-1-methyl-1H-pyrrolo[2,3-b]pyridin-2-yl)methyl)-1,2,3,6-tetrahydropyridin-4-yl)-N,N-bis(methyl-d3)pyrimidine-5-carboxamide] | –
37.6 | Cc1cc(C(=O)N(C)C)cc(F)c1C1=CCN([C@@H](C)c2cc3c(-c4ccc(N)cn4)ccnc3n2C)CC1 [Example 1z32, (S)-4-(1-(1-(4-(5-aminopyridin-2-yl)-1-methyl-1H-pyrrolo[2,3-b]pyridin-2-yl)ethyl)-1,2,3,6-tetrahydropyridin-4-yl)-3-fluoro-N,N,5-trimethylbenzamide] | –
